Results published in patent US20220323443A1, “COMBINATION THERAPY FOR CANCER TREATMENT” (TAKEDA PHARMACEUTICAL COMPANY LIMITED, priority 2019, published 2022).

What was measured:
A549 cancer cells = test: In vitro combination study with Compound 1, Cell Titer-Glo (ATP) cell viability, 72 h; type: cell-based; settings: 72 h;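 further: Ten-by-ten dose matrices of the two agents in duplicate, compounds added 16 h post-plating, activity relative to DMSO vehicle wells, call reflects synergy evaluation from luminescence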
Description: Each combination pair was evaluated in an individual 384-well plate which contained variable doses of both compounds as single agents, as well as two, ten-by-ten matrices (in duplicate) that contained mixtures of the two test compounds. In brief, compounds were added to the cell test plates 16 hours after cell plating and then assessed for viability 72 hours later. Continuous cultures of tumor cells were maintained under standard cell culturing conditions (i.e. in a humidified chamber set at 37° C., containing atmosphere 5% carbon dioxide). […] Seventy-two hours after compound addition, ATP levels were measured to assess cell viability. Plating densities were chosen to ensure optimal linear growth over the 72 hour period.
Compound dilution and compound delivery to the assay plates were done on HighRes Robotic System (HighRes Biosolutions, Woburn, Mass., USA) with Echo™ Liquid Handler (Labcyte, Sunnyvale, Calif., USA). […] Next, these were used for compound transfer into cell assay plates. All wells were back-filled to give a constant percentage of DMSO.
The final DMSO concentration was held constant in all wells across the plate and was maintained at less than 0.5%. […] Cells treated with vehicle (DMSO) in two rows, or single compound serial dilutions in one plate columns/row served as the untreated control and single compound controls, respectively.
Compound activity in A549, COLO205, H460, HCT116, SW48, SW620 cancer cell lines was assessed using Cell Titer-Glo® (Promega [Madison, Wis., USA]). After 72 hours incubation, the plates were treated as per package insert protocol for the Promega Luminescence ATP Detection Systems. Briefly, 25 μL of cell lysis/substrate solution (provided in kit form) was added to each well and the plate was incubated at room temperature for 10 minutes. Luminescence was measured using a PHERAstar multi-label counter (BMG Labtech [Ortenberg, Germany]) or LEADseeker (GE Healthcare Life Sciences [Piscataway, N.J., USA]).
Numerical luminescence values were analyzed to generate EC50 curves and evaluate synergy. Raw Data reader files were uploaded along with automation workfiles that defined the plate and well contents. Percent activities were calculated for each well versus plate controls.
Each plate representing a single drug combination was analyzed separately. First, the viability measurements were normalized by scaling the data so that the median of the negative controls was 0 and the median of the positive controls was 100.
For the combination analysis, a response surface model was used to describe the relationship between the normalized viability and the drug concentrations. The data were fit to the model by minimizing the residual sum of squares. Based on the fitted response surface, plots of constant viability, called isobolograms, were produced.
The Combination Index and Nonlinear Blending were used as measures of drug synergy. To calculate Combination Index the 50% isobologram (which is the dose contour that has 50% viability) was used. […] A standard procedure was created to produce a call in order to characterize the viability effects for each combination (synergy, additivity, subadditivity, or antagonism). If the Combination Index existed then these measures were used to make the call.

COLO205 cancer cells = test: as above; type: cell-based, human; settings: 72 h;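 further: Ten-by-ten dose matrices of both agents in duplicate plus single-agent dilutions, luminescent ATP read-out, percent activity per well relative to DMSO vehicle wells, synergy call from these matrices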
H460 cancer cells = test: as above; type: cell-based; settings: 72 h;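 further: Ten-by-ten dose matrices of both drugs alongside single-agent dilutions, luminescence read 72 hours after compound addition, percent activity per well versus vehicle (DMSO) plate controls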
HCT116 cancer cells = test: as above; type: cell-based; settings: 72 h;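 further: combination call from 10×10 dose matrices in duplicate, graded by synergy, with percent activity per well relative to DMSO vehicle controls on the same plate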
SW620 cancer cells = test: as above; type: cell-based; settings: 72 h;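 further: Ten-by-ten dose matrices of both drugs in 384-well plates, luminescent ATP read-out, synergy evaluated against single-agent and DMSO vehicle controls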
[1] = tested on: PHTXM-79Es human primary esophagus cancer xenografts; test: In vivo combination study, Patient Derived Xenograft; set-up: species or system mouse; key to Result (combination with Compound 1, tumor growth): synergistic if the synergy score was less than 0; additive if the synergy score wasn't statistically different from 0; If the synergy score was greater than zero, but the mean AUC for the combination was lower than the lowest mean AUC among the two single agent treatments, then the combination was sub-additive; If the synergy score was greater than zero, and the mean AUC for the combination was greater than the mean AUC for at least one of the single agent treatments, then the combination was antagonistic; settings: for Result (combination with Compound 1, tumor growth): PHTX-79Es (135 mm^3) FIG. 5A, drug 10 mg/kg intravenously once weekly Days 1,8,15
Description: (§1) To investigate in vivo antitumor activity of Compound 1 in combination with other agents, tests using Cell Derived Xenograft (CDX), Patient Derived Xenograft (PDX) and Syngeneic mouse tumor isograft model were conducted. Cells or Patient Derived Tumors were inoculated by one method of the following two methods (Method A and B) as shown Table 7.
(§2) Method A; Cells were maintained in either immune deficient nude mice or immune competent mice by subcutaneous inoculation of tumor cells at various concentrations into respected mice. Method B: Patient Derived Tumor s were maintained in nude mice by subcutaneous inoculation of tumor pieces (approx. 2×2×2 mm) into nude mice. Mice with tumor size of approximately 50 mm^3 (e.g., 40-75 mm^3) for syngeneic mouse studies or 200 mm^3 (e.g., 110-270 mm^3) for xenograft studies were randomly assigned to dose groups on the day (Day 0) before start date of dosing.
(§3) Compound 1 (crystalline form I) was suspended in 0.5 w/v % methylcellulose and administered orally to mice. Antibodies which administered in the experiment were described in Table 8.
(§4) Tumor size was measured by caliper and tumor volume was estimated using the equation V=(LW^2)/2, where L and W are tumor length and width, respectively and reported in cubic millimeters.
(§5) These values were compared across treatment groups to assess whether the differences in the trends over time were statistically significant. To compare pairs of treatment groups, the following mixed-effects linear regression model was fit to the data using the maximum likelihood method:
(§6) For synergy analyses, the observed differences in the log tumor values were used to calculate AUC values for each animal. In instances when an animal in a treatment group was removed from the study, the last observed tumor value was carried forward through all subsequent time points. The AUC for the control, or vehicle, group was calculated using the predicted values from the pairwise models described above. We defined a measure of synergy as follows:
(§7) where Ak and Bk are the k^th animal in the individual treatment groups and ABk is the k^th animal in combination treatment group. AUCcd is the model-predicted AUC for the control group and was treated as a constant with no variability. The standard error of the synergy score was calculated as the square root of the sum of squared standard errors across groups A, B, and AB. The degrees of freedom were estimated using the Welch-Satterthwaite equation. A hypothesis test was performed to determine if the synergy score differed from 0. P values were calculated by dividing the synergy score by its standard error and tested against a t-distribution (two-tailed) with the above-calculated degrees of freedom.
(§8) The effect was classified into four different categories. It was considered synergistic if the synergy score was less than 0 and additive if the synergy score wasn't statistically different from 0. If the synergy score was greater than zero, but the mean AUC for the combination was lower than the lowest mean AUC among the two single agent treatments, then the combination was sub-additive. If the synergy score was greater than zero, and the mean AUC for the combination was greater than the mean AUC for at least one of the single agent treatments, then the combination was antagonistic.

DU-145 (Prostate) = test: In vivo combination study, Cell Derived Xenograft; set-up: species or system mouse; settings: DU-145 (165 mm^3), Compound 1 60 mg/kg once daily Day 1-21
Description: as §1
Method A; Cells were maintained in either immune deficient nude mice or immune competent mice by subcutaneous inoculation of tumor cells at various concentrations into respected mice. Method B: Patient Derived Tumor s were maintained in nude mice by subcutaneous inoculation of tumor pieces (approx. 2×2×2 mm) into nude mice. […]
Tumor size was measured by caliper and tumor volume was estimated using the equation V=(LW^2)/2, where L and W are tumor length and width, respectively and reported in cubic millimeters. […]
For synergy analyses, the observed differences in the log tumor values were used to calculate AUC values for each animal. […] The AUC for the control, or vehicle, group was calculated using the predicted values from the pairwise models described above. […]
where Ak and Bk are the k^th animal in the individual treatment groups and ABk is the k^th animal in combination treatment group. […] The standard error of the synergy score was calculated as the square root of the sum of squared standard errors across groups A, B, and AB. […]

[2] = tested on: PHTXM-35Es human primary esophagus cancer xenografts; test: In vivo combination study, Patient Derived Xenograft; set-up: species or system mouse; settings: for Result (combination with Compound 1, tumor growth): drug 10 mg/kg intravenously once weekly Days 1,8,15
Description: as §1, §2, §3, §4, §5, §6, §7, §8

PHTXM-90Es (Esophagus) = test: as above; set-up: species or system mouse; settings: PHTXM-90Es (220 mm^3), drug 10 mg/kg intravenously once weekly Days 1,8,15
Description: as §1, §2, §3, §4, §5, §6, §7, §8

CALU6 (Lung) = test: In vitro combination study for selected compounds, additional cell lines; type: cell-based; settings: drug combined with Compound 1
Description: (§9) In vitro anti-proliferative effects of selected compounds were tested in additional cell lines, including ovarian cancer (SKOV3) and pancreatic cancer (MIA-PACA-2) cell lines.

H-1650 (Lung) = test: as above; type: cell-based; settings: drug combined with Compound 1
Description: as §9

[3] = tested on: ovarian cancer (SKOV3) cell line; test: as above; type: cell-based; settings: drug combined with Compound 1
Description: as §9

Panc02 (Pancreatic) = test: In vivo combination study, syngeneic mouse tumor isograft model
Description: as §1, §2, §3, §4, §5, §6, §7, §8

[4] = tested on: PHTX-249Pa human primary pancreatic xenografts; test: In vivo combination study, Patient Derived Xenograft; set-up: species or system mouse
Description: as §1, §2, §3, §4, §5, §6, §7, §8

PHTXM-97Pa (Pancreatic) = test: as above; set-up: species or system mouse
Description: as §1, §2, §3, §4, §5, §6, §7, §8

[5] = Table 5 drug combined with Compound 1
[6] = Compound 1 40 mg/kg once daily Day 1-21
[7] = Compound 1 60 mg/kg once daily Day 1-21
[8] = DNA damaging agent combined with Compound 1

CC(=O)O[C@@]12CO[C@@H]1C[C@H](O)[C@@]1(C)C(=O)[C@H](O)C3=C(C)[C@@H](OC(=O)[C@H](O)[C@@H](NC(=O)OC(C)(C)C)c4ccccc4)C[C@@](O)([C@@H](OC(=O)c4ccccc4)[C@H]21)C3(C)C [Docetaxel]
Call, anti-proliferative effect of combination with Compound 1, A549 (A549 cancer cells; [5]): Subadditivity (1.3 to 2)
Call, anti-proliferative effect of combination with Compound 1, COLO205 (COLO205 cancer cells; [5]): Additivity (0.7 to 1.3)
Call, anti-proliferative effect of combination with Compound 1, H460 (H460 cancer cells; [5]): Additivity (0.7 to 1.3)
Call, anti-proliferative effect of combination with Compound 1, HCT116 (HCT116 cancer cells; [5]): Additivity (0.7 to 1.3)
Call, anti-proliferative effect of combination with Compound 1, SW620 (SW620 cancer cells; [5]): Synergy (0 to 0.7)
Result (combination with Compound 1, tumor growth) [1, 6]: Synergistic
Result (combination with Compound 1, tumor growth) [1, 7]: additive
antitumor activity ([1]; combined with Compound 1, PHTXM-79Es human primary esophagus cancer xenografts, FIG. 5A): strong antitumor activity compared to either single treatment alone
Result (combination with Compound 1, tumor growth) (DU-145 (Prostate); drug 10 mg/kg intravenously once weekly Days 1,8,15): Additive
Result (combination with Compound 1, tumor growth) ([2]; PHTXM-35Es (150 mm^3) FIG. 4B, Compound 1 40 mg/kg once daily Day 1-21): Synergistic
Result (combination with Compound 1, tumor growth) ([2]; PHTXM-35Es (150 mm^3) FIG. 4B, Compound 1 60 mg/kg once daily Day 1-21): Additive
Result (combination with Compound 1, tumor growth) ([2]; PHTXM-35Es (190 mm^3), Compound 1 40 mg/kg once daily Day 1-21): Synergistic
Result (combination with Compound 1, tumor growth) ([2]; PHTXM-35Es (190 mm^3), Compound 1 60 mg/kg once daily Day 1-21): Synergistic
antitumor activity ([2]; combined with Compound 1, PHTXM-35Es human primary esophagus cancer xenografts, FIG. 4B): strong antitumor activity compared to either single treatment alone
Result (combination with Compound 1, tumor growth) (PHTXM-90Es (Esophagus); [6]): Additive
Result (combination with Compound 1, tumor growth) (PHTXM-90Es (Esophagus); [7]): Additive

Nc1ccn([C@@H]2O[C@H](CO)[C@@H](O)C2(F)F)c(=O)n1 [Gemcitabine]
Call, anti-proliferative effect of combination with Compound 1, A549 (A549 cancer cells; [8]): Antagonism (>2)
Call, anti-proliferative effect of combination with Compound 1, COLO205 (COLO205 cancer cells; [8]): Additivity (0.7 to 1.3)
Call, anti-proliferative effect of combination with Compound 1, H460 (H460 cancer cells; [8]): Subadditivity (1.3 to 2)
Call, anti-proliferative effect of combination with Compound 1, HCT116 (HCT116 cancer cells; [8]): Additivity (0.7 to 1.3)
Call, anti-proliferative effect of combination with Compound 1, SW620 (SW620 cancer cells; [8]): Additivity (0.7 to 1.3)
In vitro combination effect with Compound 1, Lung CALU6 (CALU6 (Lung)): Additive
In vitro combination effect with Compound 1, Lung H-1650 (H-1650 (Lung)): Antagonism
In vitro combination effect with Compound 1, Ovary SKOV3 [3]: Additive
Result (combination with Compound 1, tumor growth) (DU-145 (Prostate); drug 40 mg/kg intraperitoneally Days 1,4,8,11,15,18): Additive
Result (combination with Compound 1, tumor growth) (Panc02 (Pancreatic); Panc02 (75 mm^3), Compound 1 60 mg/kg orally QD day 0-20, drug 5 mg/kg intraperitoneally QD on Day 0,3,6,9,12): Additive
CR per group (Panc02 (Pancreatic); note to Table 9, by note order: Gemcitabine study in Panc02 (75 mm^3)): 0 CR in Gemcitabine group and 0 CR in Compound 1 group, and 0 CR in Compound 1/Gemcitabine combo group
Result (combination with Compound 1, tumor growth) ([4]; PHTX-249Pa (165 mm^3), Compound 1 40 mg/kg once daily Day 1-21, drug 20 mg/kg intraperitoneally Days 1,4,8,11,15,18): Additive
Result (combination with Compound 1, tumor growth) ([4]; PHTX-249Pa (165 mm^3), Compound 1 40 mg/kg once daily Day 1-21, drug 40 mg/kg intraperitoneally Days 1,4,8,11,15,18): subadditive
Result (combination with Compound 1, tumor growth) ([4]; PHTX-249Pa (165 mm^3), Compound 1 60 mg/kg once daily Day 1-21, drug 20 mg/kg intraperitoneally Days 1,4,8,11,15,18): Additive
Result (combination with Compound 1, tumor growth) ([4]; PHTX-249Pa (165 mm^3), Compound 1 60 mg/kg once daily Day 1-21, drug 40 mg/kg intraperitoneally Days 1,4,8,11,15,18): subadditive
Result (combination with Compound 1, tumor growth) ([4]; PHTX-249Pa (180 mm^3) FIG. 6A, Compound 1 20 mg/kg once daily Day 1-21, drug 5 mg/kg intraperitoneally Days 1,4,8,11,15,18): Synergistic
Result (combination with Compound 1, tumor growth) ([4]; PHTX-249Pa (180 mm^3) FIG. 6A, Compound 1 20 mg/kg once daily Day 1-21, drug 20 mg/kg intraperitoneally Days 1,4,8,11,15,18): Additive
Result (combination with Compound 1, tumor growth) ([4]; PHTX-249Pa (180 mm^3) FIG. 6A, Compound 1 40 mg/kg once daily Day 1-21, drug 5 mg/kg intraperitoneally Days 1,4,8,11,15,18): Additive
Result (combination with Compound 1, tumor growth) ([4]; PHTX-249Pa (180 mm^3) FIG. 6A, Compound 1 40 mg/kg once daily Day 1-21, drug 20 mg/kg intraperitoneally Days 1,4,8,11,15,18): subadditive
antitumor activity ([4]; combined with Compound 1, PHTX-249 Pa human primary pancreatic xenografts, FIG. 6A): strong antitumor activity compared to either single treatment alone
Result (combination with Compound 1, tumor growth) (PHTXM-97Pa (Pancreatic); PHTXM-97Pa (180 mm^3), Compound 1 20 mg/kg once daily Day 1-21, drug 5 mg/kg intraperitoneally Days 1,4,8,11,15,18): subadditive
Result (combination with Compound 1, tumor growth) (PHTXM-97Pa (Pancreatic); PHTXM-97Pa (180 mm^3), Compound 1 20 mg/kg once daily Day 1-21, drug 20 mg/kg intraperitoneally Days 1,4,8,11,15,18): Additive
Result (combination with Compound 1, tumor growth) (PHTXM-97Pa (Pancreatic); PHTXM-97Pa (180 mm^3), Compound 1 40 mg/kg once daily Day 1-21, drug 5 mg/kg intraperitoneally Days 1,4,8,11,15,18): subadditive
Result (combination with Compound 1, tumor growth) (PHTXM-97Pa (Pancreatic); PHTXM-97Pa (180 mm^3), Compound 1 40 mg/kg once daily Day 1-21, drug 20 mg/kg intraperitoneally Days 1,4,8,11,15,18): subadditive
Result (combination with Compound 1, tumor growth) (PHTXM-97Pa (Pancreatic); PHTXM-97Pa (210 mm^3), Compound 1 40 mg/kg once daily Day 1-21, drug 20 mg/kg intraperitoneally Days 1,4,8,11,15,18): subadditive
Result (combination with Compound 1, tumor growth) (PHTXM-97Pa (Pancreatic); PHTXM-97Pa (210 mm^3), Compound 1 40 mg/kg once daily Day 1-21, drug 40 mg/kg intraperitoneally Days 1,4,8,11,15,18): subadditive
Result (combination with Compound 1, tumor growth) (PHTXM-97Pa (Pancreatic); PHTXM-97Pa (210 mm^3), Compound 1 60 mg/kg once daily Day 1-21, drug 20 mg/kg intraperitoneally Days 1,4,8,11,15,18): subadditive
Result (combination with Compound 1, tumor growth) (PHTXM-97Pa (Pancreatic); PHTXM-97Pa (210 mm^3), Compound 1 60 mg/kg once daily Day 1-21, drug 40 mg/kg intraperitoneally Days 1,4,8,11,15,18): subadditive
